In the supplement of paper PMC10307832:

Experiments:
Assay in all cases: relative viability (nuclei count vs DMSO), 5 days (fraction); higher = more cells survive
AT9283 + Linsitinib = compound: O=C(Nc1c[nH]nc1-c1nc2ccc(CN3CCOCC3)cc2[nH]1)NC1CC1 [AT9283] + C[C@]1(O)C[C@@H](c2nc(-c3ccc4ccc(-c5ccccc5)nc4c3)c3c(N)nccn32)C1 [Linsitinib] (partner 1 µM)
In short: (§1)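 Cells from lung cancer lines were seeded into 1536-well plates and, one day later, dosed by pin tool. Treatments were either a single drug or a fixed dose of an anchor drug with five library-drug doses (not always all listed) in √10 steps. After 5 days, nuclei were stained in a one-step fixation (final 0.05% Triton X-100, 1% formaldehyde, 1 ug/ml Hoechst) and counted on 4× images, and relative viability is the treated-to-vehicle nuclei ratio, as the median of duplicate plates.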

AT9283 + Pemetrexed = compound: O=C(Nc1c[nH]nc1-c1nc2ccc(CN3CCOCC3)cc2[nH]1)NC1CC1 [AT9283] + Nc1nc2[nH]cc(CCc3ccc(C(=O)N[C@@H](CCC(=O)O)C(=O)O)cc3)c2c(=O)[nH]1 [Pemetrexed] (partner 0.2 µM)
In short: as §1

Erlotinib + Tozasertib = compound: C#Cc1cccc(Nc2ncnc3cc(OCCOC)c(OCCOC)cc23)c1 [Erlotinib] + Cc1cc(Nc2cc(N3CCN(C)CC3)nc(Sc3ccc(NC(=O)C4CC4)cc3)n2)n[nH]1 [Tozasertib] (partner 0.1 µM)
In short: as §1

Erlotinib + Bortezomib = compound: C#Cc1cccc(Nc2ncnc3cc(OCCOC)c(OCCOC)cc23)c1 [Erlotinib] + CC(C)C[C@H](NC(=O)[C@H](Cc1ccccc1)NC(=O)c1cnccn1)B(O)O [Bortezomib] (partner 0.002 µM)
In short: as §1

AT9283 + Olaparib = compound: O=C(Nc1c[nH]nc1-c1nc2ccc(CN3CCOCC3)cc2[nH]1)NC1CC1 [AT9283] + O=C(c1cc(Cc2n[nH]c(=O)c3ccccc23)ccc1F)N1CCN(C(=O)C2CC2)CC1 [Olaparib] (partner 8 µM)
In short: as §1

Row | Cell Line | relative viability (AT9283 + Linsitinib; first compound 0.003 µM) | relative viability (AT9283 + Linsitinib; first compound 0.03 µM) | relative viability (AT9283 + Linsitinib; first compound 0.09487 µM) | relative viability (AT9283 + Linsitinib; first compound 0.3 µM) | relative viability (AT9283 + Pemetrexed; first compound 0.003 µM) | relative viability (AT9283 + Pemetrexed; first compound 0.03 µM) | relative viability (AT9283 + Pemetrexed; first compound 0.09487 µM) | relative viability (AT9283 + Pemetrexed; first compound 0.3 µM) | relative viability (Erlotinib + Tozasertib; first compound 0.02 µM) | relative viability (Erlotinib + Tozasertib; first compound 0.2 µM) | relative viability (Erlotinib + Tozasertib; first compound 0.6325 µM) | relative viability (Erlotinib + Tozasertib; first compound 2 µM) | relative viability (Erlotinib + Bortezomib; first compound 0.02 µM) | relative viability (Erlotinib + Bortezomib; first compound 0.2 µM) | relative viability (Erlotinib + Bortezomib; first compound 0.6325 µM) | relative viability (Erlotinib + Bortezomib; first compound 2 µM) | relative viability (AT9283 + Olaparib; first compound 0.003 µM) | relative viability (AT9283 + Olaparib; first compound 0.03 µM) | relative viability (AT9283 + Olaparib; first compound 0.09487 µM) | relative viability (AT9283 + Olaparib; first compound 0.3 µM)
1 | LU99A | 0.409 | 0.196 | 0.165 | 0.165 | 0.162 | 0.184 | 0.139 | 0.112 | 0.305 | 0.271 | 0.263 | 0.221 | 1.34 | 1.1 | 1.24 | 0.899 | 0.258 | 0.214 | 0.14 | 0.123
2 | NCI-H1993 | 0.788 | 0.686 | 0.61 | 0.588 | 0.565 | 0.514 | 0.52 | 0.389 | 0.574 | 0.518 | 0.569 | 0.591 | 1.01 | 0.698 | 0.809 | 0.739 | 1.07 | 1 | 0.552 | 0.391
3 | NCI-H2347 | 0.952 | 0.975 | 0.555 | 0.389 | 0.419 | 0.417 | 0.376 | 0.338 | 0.58 | 0.49 | 0.52 | 0.535 | 0.759 | 0.873 | 1.26 | 0.659 | 0.595 | 0.615 | 0.477 | 0.413
4 | NCI-H1734 | 0.85 | 0.583 | 0.288 | 0.294 | 0.384 | 0.404 | 0.326 | 0.228 | 0.259 | 0.238 | 0.273 | 0.273 | 1.1 | 0.955 | 1.17 | 0.961 | 0.643 | 0.414 | 0.293 | 0.259
5 | HCC-44 | 0.628 | 0.745 | 0.148 | 0.14 | 0.629 | 0.666 | 0.564 | 0.694 | 1.18 | 0.421 | 1.04 | 0.711 | 0.99 | – | 0.982 | 0.899 | 1.01 | 0.963 | 0.724 | 0.817
6 | LCLC-97TM1 | 0.184 | 0.156 | 0.107 | 0.0936 | 0.19 | 0.134 | 0.0995 | 0.0907 | 0.285 | 0.204 | 0.203 | 0.172 | 0.528 | 0.747 | 0.529 | 0.464 | 0.41 | 0.233 | 0.103 | 0.0959
7 | HOP-62 | 0.927 | 0.721 | 0.178 | 0.173 | 0.439 | 0.192 | 0.144 | 0.153 | 0.405 | 0.409 | 0.411 | 0.26 | 1.08 | 0.5 | 0.316 | 1.02 | 0.514 | 0.308 | 0.137 | 0.201
8 | NCI-H2405 | 1.06 | 0.632 | 0.315 | 0.221 | 0.995 | 0.977 | 0.324 | 0.22 | 0.765 | 0.722 | 0.686 | 0.565 | 1.12 | 1.03 | 0.998 | 0.938 | 0.941 | 0.615 | 0.333 | 0.217
